In series [1] the test system is mouse T lymphocytes stimulated with the combination of ionomycin plus PMA. The experiment in a line: T-cell proliferation assay (ionomycin plus PMA induced T-cell stimulation, tritiated thymidine uptake). The format is cell-based, C57B1/6 mice. An excerpt:
The principle of this assay is to measure the proliferation of mouse T lymphocytes stimulated with the combination of ionomycin plus PMA. A positive sample in this assay will inhibit T-cell proliferation, as indicated by reduced tritiated thymidine uptake.
Spleens from C57B1/6 mice were taken under sterile conditions and gently dissociated in ice-cold RPMI 1640 culture medium (GIBCO, Grand Island, N.Y.) supplemented with 10% heat-inactivated fetal calf serum (GIBCO). Cells were pelleted by centrifugation at 1500 rpm for 8 minutes. Contaminating red cells were removed by treating the pellet with ammonium chloride lysing buffer (GIBCO) for 2 minutes at 4°C. […]
Purified T lymphocytes were resuspended at 2.5 x 10⁵ cells/ml in complete culture medium composed of RPMI 1640 medium with 10% heat-inactivated fetal calf serum, […] glutamine, 1 mM sodium pyruvate, 2 x 10⁻⁵ M 2-mercaptoethanol and 50 µg/ml gentamycin. […] The proliferation of T lymphocytes was assessed by measurement of tritiated thymidine incorporation. […] Radioactivity of filter discs corresponding to individual wells was measured by standard liquid scintillation counting methods (Beta counter). Mean counts per minute of replicate wells were calculated and the results expressed as percent inhibition of tritiated thymidine uptake (proliferation) as follows: [formula] […]

The nature of series [2]: Physical characteristics: solubility. The format is physicochemical. As to conditions: solvent methanol; qualitative. An excerpt: White amorphous powder • 2. […] Molecular weight of 805, as determined by mass spectrometry consistent with a molecular ion at (m/z) 1093.6556 for the tetra-(trimethylsilyl) derivative and characteristic fragment ions at (m/z) 673 and 481.
White amorphous powder • 2. […] Molecular weight of 805, as determined by mass spectrometry consistent with a molecular ion at (m/z) 1021.6169 for the tri-(trimethylsilyl) derivative and characteristic fragment ions at (m/z) 675 and 483.

Results on one molecule are retold here after patent publication EP0358508A2, “Novel immunosuppressant compound” (MERCK & CO. INC., priority 1988, dated 1990).

Entries after “also recorded” stand apart in the source; their conditions may differ.

Consider `CCC[C@@H]1/C=C(\C)C[C@H](C)C[C@H](OC)[C@H]2O[C@@](O)(C(=O)C(=O)N3CCCC[C@H]3C(=O)O[C@H](/C(C)=C/[C@@H]3CC[C@@H](O)[C@H](OC)C3)[C@H](C)[C@@H](O)CC1=O)[C@H](C)C[C@@H]2OC` [Tsukubamycin B], for which the “inhibition of T-cell proliferation after addition of IL-2” value in series [1] (50 units/ml of IL-2 (recombinant human IL-2) added at the initiation of culture) is “reversed”. The “inhibition of T-cell activation / % inhibition of tritiated thymidine uptake (proliferation)” value in series [1] (purified mouse spleen T lymphocytes, ionomycin 250 ng/ml plus PMA 10 ng/ml, 44 hours culture plus 4 hours pulse, various concentrations, no numbers given) was “indicated its immunosuppressant properties; also recorded: positive inhibition of T-cell activation”. Moreover, in series [2], the Solubility entry is recorded as “Solubility in methanol”.
